# Data as given in ChEMBL document CHEMBL1127896, “Synthesis and pharmacological characterization of ABT-200: a putative novel antidepressant combining potent -2 antagonism with moderate NE uptake inhibition” (Bioorg Med Chem Lett, 1994).
# Key:
# Rattus norvegicus = organism: Rattus norvegicus; experiment: Concentration required for its norepinephrine reuptake inhibitory activity in synaptosomal rat hyphalamic preparations; format: functional
# [1] = target: T1, Adrenergic receptor alpha-2 (Rattus norvegicus, UniProt P22086+P19328+P22909); experiment: Evaluated for its presynaptic Alpha-2 adrenergic receptor antagonistic activity against rat vas deferens using clonidine as the control expressed as slope; format: functional, tissue-based
# T1 sequence (P22086 whole entry): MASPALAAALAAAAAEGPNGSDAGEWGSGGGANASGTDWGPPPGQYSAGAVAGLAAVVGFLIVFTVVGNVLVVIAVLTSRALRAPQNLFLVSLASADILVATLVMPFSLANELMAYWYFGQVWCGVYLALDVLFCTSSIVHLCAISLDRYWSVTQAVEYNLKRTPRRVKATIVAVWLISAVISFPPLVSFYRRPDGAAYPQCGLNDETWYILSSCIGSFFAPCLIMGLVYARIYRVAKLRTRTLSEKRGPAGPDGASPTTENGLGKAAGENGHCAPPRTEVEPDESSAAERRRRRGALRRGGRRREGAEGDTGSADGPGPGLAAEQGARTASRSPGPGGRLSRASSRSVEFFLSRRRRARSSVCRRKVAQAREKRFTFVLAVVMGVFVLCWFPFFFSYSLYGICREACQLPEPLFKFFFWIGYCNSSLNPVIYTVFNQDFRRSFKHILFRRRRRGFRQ
# T1 sequence (P19328 whole entry): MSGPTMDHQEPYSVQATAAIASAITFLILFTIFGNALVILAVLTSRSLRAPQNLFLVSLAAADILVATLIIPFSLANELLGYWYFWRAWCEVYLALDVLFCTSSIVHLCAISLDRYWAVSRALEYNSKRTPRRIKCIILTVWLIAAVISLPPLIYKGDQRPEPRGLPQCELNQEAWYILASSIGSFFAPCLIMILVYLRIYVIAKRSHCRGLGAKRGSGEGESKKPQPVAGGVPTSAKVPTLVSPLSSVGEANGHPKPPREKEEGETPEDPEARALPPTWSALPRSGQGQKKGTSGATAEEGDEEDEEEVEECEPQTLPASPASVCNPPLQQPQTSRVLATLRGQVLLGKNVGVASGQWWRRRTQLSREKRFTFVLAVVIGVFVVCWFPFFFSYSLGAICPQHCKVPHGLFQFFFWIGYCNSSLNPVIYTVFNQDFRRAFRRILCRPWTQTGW
# T1 sequence (P22909 whole entry): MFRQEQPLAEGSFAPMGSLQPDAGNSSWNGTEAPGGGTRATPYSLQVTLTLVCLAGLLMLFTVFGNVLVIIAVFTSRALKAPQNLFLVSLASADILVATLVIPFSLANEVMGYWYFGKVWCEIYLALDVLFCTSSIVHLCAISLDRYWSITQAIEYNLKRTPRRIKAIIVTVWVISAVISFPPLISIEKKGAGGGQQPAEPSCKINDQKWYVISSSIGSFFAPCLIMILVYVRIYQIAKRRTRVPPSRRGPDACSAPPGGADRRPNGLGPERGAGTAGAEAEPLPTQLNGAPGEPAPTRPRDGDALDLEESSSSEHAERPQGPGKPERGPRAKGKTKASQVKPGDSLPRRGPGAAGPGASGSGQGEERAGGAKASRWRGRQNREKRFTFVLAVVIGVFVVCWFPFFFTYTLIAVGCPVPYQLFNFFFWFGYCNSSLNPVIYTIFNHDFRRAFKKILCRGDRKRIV
# [2] = target: T2, Adrenergic receptor alpha-1 (Rattus norvegicus, UniProt P15823+P23944+P43140); experiment: In vitro binding affinity at Alpha-1 adrenergic receptor by radioligand binding assay using [3H]prazosin; format: protein assay
# T2 sequence (P15823 whole entry): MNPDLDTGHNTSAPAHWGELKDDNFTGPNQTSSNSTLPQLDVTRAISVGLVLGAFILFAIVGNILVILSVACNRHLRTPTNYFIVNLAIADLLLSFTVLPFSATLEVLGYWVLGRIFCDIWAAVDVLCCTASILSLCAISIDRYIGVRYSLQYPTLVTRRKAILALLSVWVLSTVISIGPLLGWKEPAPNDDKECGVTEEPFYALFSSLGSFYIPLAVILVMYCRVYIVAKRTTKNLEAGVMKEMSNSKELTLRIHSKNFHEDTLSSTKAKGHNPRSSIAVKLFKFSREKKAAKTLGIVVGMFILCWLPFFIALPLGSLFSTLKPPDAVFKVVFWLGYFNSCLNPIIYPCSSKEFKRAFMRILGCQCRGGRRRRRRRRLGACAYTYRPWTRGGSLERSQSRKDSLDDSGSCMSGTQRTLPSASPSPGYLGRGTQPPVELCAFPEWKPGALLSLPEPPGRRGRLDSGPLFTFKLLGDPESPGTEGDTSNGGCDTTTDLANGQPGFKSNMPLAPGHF
# T2 sequence (P23944 whole entry): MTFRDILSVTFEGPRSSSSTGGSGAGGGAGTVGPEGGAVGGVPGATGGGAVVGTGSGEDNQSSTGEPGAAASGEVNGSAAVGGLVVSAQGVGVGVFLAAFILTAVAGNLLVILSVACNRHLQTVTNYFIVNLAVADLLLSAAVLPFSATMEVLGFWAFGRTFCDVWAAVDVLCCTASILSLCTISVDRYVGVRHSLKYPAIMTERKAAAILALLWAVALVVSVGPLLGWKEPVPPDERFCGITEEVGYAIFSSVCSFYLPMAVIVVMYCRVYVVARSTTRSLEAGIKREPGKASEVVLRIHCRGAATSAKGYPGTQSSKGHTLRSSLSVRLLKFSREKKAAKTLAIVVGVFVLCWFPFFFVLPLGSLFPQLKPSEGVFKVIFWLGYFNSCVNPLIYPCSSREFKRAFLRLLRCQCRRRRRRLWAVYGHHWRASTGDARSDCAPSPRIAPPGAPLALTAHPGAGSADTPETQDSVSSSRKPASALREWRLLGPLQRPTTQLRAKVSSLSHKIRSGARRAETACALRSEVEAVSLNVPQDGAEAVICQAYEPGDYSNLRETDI
# T2 sequence (P43140 whole entry): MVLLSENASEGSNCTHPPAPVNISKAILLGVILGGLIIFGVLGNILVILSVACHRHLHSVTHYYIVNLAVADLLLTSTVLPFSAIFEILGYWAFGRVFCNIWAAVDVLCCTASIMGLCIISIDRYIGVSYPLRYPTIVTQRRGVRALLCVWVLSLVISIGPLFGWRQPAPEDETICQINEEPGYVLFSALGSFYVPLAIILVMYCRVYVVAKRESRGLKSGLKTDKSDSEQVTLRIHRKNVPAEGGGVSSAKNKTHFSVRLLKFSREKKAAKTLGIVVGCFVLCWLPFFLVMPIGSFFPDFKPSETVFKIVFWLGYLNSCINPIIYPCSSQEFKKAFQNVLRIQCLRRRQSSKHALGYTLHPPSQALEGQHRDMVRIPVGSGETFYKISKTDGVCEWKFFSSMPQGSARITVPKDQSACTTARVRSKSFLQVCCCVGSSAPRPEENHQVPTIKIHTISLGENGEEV
# [3] = target: T1, Adrenergic receptor alpha-2; experiment: In vitro binding affinity at Alpha-2 adrenergic receptor in rat cortex by radioligand binding assay using [3H]rauwolscine
compound,measurement,setting,value
c1ccc([C@H]2CCN(C[C@H]3CCCc4c3ccc3c4OCO3)C2)cc1,IC50,Rattus norvegicus; Rattus norvegicus,1.45 µM
same,pA2,[1],6.65
same,Ki,[2],0.189 µM
same,Ki,[3],0.00456 µM
c1ccc(C2CCN(CC3CCCc4c3ccc3c4OCO3)C2)cc1 (stereo in doubt; 6a/b),IC50,Rattus norvegicus,1.32 µM
same,pA2,[1],7.84
same,Ki,[2],0.0759 µM
same,Ki,[3],0.000708 µM
c1ccc([C@@H]2CCN(C[C@@H]3CCCc4c3ccc3c4OCO3)C2)cc1,IC50,Rattus norvegicus; Rattus norvegicus,1.7 µM
same,pA2,[1],7.91
same,Ki,[2],0.0474 µM
same,Ki,[3],0.0005 µM
c1ccc([C@@H]2CCN(C[C@H]3CCCc4c3ccc3c4OCO3)C2)cc1,IC50,Rattus norvegicus; Rattus norvegicus,0.636 µM
same,pA2,[1],6.78
same,Ki,[2],0.104 µM
same,Ki,[3],0.00208 µM
c1ccc([C@H]2CCN(C[C@@H]3CCCc4c3ccc3c4OCO3)C2)cc1,IC50,Rattus norvegicus,3.11 µM
same,pA2,[1],7.78
same,Ki,[2],0.106 µM
same,Ki,[3],0.000428 µM
CN(C)CCCN1c2ccccc2CCc2ccccc21 [IMIPRAMINE],IC50,Rattus norvegicus; Rattus norvegicus,0.105 µM
same,Ki,[3],0.255 µM
c1ccc(C2CCN(CC3CCCc4c3ccc3c4OCO3)C2)cc1 (stereo in doubt; 1a/b),IC50,Rattus norvegicus,0.841 µM
same,pA2,[1],7.68
same,Ki,[2],0.112 µM
same,Ki,[3],0.00123 µM
